# Measured values published in ChEMBL document CHEMBL1201862, “PubChem BioAssay data set” (2004).
# Active and inactive are the calls of the source.
# Legend:
# [1] = target: T1, Zinc finger protein mex-5 (Caenorhabditis elegans, UniProt Q9XUB2); assay: MEX-5/TCR-2 RNA interaction inhibitors, dose response, biochemical, C. elegans, fluorescence polarization (AID 1960)
# T1 sequence (Q9XUB2 whole entry): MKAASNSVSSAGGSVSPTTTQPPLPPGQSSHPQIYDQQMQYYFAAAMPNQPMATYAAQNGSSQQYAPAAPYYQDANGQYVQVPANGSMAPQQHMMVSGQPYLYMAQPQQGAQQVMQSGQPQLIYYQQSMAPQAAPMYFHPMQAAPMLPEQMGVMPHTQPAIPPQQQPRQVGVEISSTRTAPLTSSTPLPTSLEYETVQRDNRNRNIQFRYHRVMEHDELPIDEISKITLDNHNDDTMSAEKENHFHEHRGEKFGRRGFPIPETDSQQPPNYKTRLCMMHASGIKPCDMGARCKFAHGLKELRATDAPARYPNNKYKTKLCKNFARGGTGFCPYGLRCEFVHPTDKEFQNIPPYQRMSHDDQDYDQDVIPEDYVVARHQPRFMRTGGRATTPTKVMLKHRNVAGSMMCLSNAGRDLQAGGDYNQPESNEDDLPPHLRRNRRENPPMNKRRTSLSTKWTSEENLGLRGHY
# [2] = ZM109 Env clade C HIV-1 fusion inhibitors, dose response, HeLa effector, CEM target cells, luciferase, cherry-pick (AID 652058); format: functional, cell-based
# CHO = assay: cytotoxicity in TLR9-MyD88 CHO cells, dose response, cytotoxicity control for TLR9-MyD88 binding inhibitor project, cell-based, luminescence (AID 588339); format: functional, hamster; details: Cricetulus griseus;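 note: CHO cells stably coexpressing TLR9 and MyD88 fusions from primary screen; compound exposure lasted 48 hours before viability readout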
# INS1 = assay: beta cell apoptosis inhibitors, cytokine rescue, dose response, luminescence, retest (AID 449756); format: functional, cell-based; details: Rattus norvegicus;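 note: cell death triggered by IL-1 beta plus TNF-alpha plus IFN-gamma mixture; protective hits raise ATP signal compared with cytokine alone wells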
# [3] = HepG2 cell cytotoxicity, dose response, cytotoxicity control for Shn3 inhibitor project, CellTiter-Glo, cherry-picked (AID 624134); format: functional, cell-based
# [4] = HeLa cell cytotoxicity, dose response, cytotoxicity control for MgcRacGAP inhibitor project (AID 624300); format: functional
# [5] = target: T2, Rac GTPase-activating protein 1 (Homo sapiens, UniProt Q9H0H5); assay: MgcRacGAP GTPase-activating activity inhibitors, confirmation, biochemical, ADP Hunter fluorescence, primary and confirmatory (AID 624330); format: functional
# T2 sequence (Q9H0H5 whole entry): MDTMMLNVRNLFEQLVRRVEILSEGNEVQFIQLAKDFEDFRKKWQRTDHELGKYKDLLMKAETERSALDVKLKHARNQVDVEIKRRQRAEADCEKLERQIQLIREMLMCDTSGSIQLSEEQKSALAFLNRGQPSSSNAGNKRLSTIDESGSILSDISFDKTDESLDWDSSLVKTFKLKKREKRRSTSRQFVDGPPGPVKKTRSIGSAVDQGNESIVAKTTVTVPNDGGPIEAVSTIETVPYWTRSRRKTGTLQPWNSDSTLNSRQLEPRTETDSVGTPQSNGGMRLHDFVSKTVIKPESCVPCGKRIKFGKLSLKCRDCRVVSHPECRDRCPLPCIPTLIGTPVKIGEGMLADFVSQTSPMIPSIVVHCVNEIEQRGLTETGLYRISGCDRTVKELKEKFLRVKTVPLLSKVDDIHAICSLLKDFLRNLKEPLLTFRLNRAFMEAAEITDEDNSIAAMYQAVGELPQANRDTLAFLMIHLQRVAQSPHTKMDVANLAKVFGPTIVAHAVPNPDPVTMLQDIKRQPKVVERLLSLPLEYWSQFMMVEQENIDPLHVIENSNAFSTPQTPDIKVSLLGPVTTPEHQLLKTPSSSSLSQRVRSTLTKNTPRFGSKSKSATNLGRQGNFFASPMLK
# Fatty acid synthase = Fatty acid synthase (Homo sapiens, UniProt P49327); assay: FAS thioesterase domain inhibitors, dose response, biochemical, kinetic fluorescence intensity (AID 624326); format: functional;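 note: rate of fluorescence rise from hydrolysis of a fluorogenic O-methyl fluorescein ester substrate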
# Chain of Fatty acid synthase (P49327 whole entry, the tested form may be a part): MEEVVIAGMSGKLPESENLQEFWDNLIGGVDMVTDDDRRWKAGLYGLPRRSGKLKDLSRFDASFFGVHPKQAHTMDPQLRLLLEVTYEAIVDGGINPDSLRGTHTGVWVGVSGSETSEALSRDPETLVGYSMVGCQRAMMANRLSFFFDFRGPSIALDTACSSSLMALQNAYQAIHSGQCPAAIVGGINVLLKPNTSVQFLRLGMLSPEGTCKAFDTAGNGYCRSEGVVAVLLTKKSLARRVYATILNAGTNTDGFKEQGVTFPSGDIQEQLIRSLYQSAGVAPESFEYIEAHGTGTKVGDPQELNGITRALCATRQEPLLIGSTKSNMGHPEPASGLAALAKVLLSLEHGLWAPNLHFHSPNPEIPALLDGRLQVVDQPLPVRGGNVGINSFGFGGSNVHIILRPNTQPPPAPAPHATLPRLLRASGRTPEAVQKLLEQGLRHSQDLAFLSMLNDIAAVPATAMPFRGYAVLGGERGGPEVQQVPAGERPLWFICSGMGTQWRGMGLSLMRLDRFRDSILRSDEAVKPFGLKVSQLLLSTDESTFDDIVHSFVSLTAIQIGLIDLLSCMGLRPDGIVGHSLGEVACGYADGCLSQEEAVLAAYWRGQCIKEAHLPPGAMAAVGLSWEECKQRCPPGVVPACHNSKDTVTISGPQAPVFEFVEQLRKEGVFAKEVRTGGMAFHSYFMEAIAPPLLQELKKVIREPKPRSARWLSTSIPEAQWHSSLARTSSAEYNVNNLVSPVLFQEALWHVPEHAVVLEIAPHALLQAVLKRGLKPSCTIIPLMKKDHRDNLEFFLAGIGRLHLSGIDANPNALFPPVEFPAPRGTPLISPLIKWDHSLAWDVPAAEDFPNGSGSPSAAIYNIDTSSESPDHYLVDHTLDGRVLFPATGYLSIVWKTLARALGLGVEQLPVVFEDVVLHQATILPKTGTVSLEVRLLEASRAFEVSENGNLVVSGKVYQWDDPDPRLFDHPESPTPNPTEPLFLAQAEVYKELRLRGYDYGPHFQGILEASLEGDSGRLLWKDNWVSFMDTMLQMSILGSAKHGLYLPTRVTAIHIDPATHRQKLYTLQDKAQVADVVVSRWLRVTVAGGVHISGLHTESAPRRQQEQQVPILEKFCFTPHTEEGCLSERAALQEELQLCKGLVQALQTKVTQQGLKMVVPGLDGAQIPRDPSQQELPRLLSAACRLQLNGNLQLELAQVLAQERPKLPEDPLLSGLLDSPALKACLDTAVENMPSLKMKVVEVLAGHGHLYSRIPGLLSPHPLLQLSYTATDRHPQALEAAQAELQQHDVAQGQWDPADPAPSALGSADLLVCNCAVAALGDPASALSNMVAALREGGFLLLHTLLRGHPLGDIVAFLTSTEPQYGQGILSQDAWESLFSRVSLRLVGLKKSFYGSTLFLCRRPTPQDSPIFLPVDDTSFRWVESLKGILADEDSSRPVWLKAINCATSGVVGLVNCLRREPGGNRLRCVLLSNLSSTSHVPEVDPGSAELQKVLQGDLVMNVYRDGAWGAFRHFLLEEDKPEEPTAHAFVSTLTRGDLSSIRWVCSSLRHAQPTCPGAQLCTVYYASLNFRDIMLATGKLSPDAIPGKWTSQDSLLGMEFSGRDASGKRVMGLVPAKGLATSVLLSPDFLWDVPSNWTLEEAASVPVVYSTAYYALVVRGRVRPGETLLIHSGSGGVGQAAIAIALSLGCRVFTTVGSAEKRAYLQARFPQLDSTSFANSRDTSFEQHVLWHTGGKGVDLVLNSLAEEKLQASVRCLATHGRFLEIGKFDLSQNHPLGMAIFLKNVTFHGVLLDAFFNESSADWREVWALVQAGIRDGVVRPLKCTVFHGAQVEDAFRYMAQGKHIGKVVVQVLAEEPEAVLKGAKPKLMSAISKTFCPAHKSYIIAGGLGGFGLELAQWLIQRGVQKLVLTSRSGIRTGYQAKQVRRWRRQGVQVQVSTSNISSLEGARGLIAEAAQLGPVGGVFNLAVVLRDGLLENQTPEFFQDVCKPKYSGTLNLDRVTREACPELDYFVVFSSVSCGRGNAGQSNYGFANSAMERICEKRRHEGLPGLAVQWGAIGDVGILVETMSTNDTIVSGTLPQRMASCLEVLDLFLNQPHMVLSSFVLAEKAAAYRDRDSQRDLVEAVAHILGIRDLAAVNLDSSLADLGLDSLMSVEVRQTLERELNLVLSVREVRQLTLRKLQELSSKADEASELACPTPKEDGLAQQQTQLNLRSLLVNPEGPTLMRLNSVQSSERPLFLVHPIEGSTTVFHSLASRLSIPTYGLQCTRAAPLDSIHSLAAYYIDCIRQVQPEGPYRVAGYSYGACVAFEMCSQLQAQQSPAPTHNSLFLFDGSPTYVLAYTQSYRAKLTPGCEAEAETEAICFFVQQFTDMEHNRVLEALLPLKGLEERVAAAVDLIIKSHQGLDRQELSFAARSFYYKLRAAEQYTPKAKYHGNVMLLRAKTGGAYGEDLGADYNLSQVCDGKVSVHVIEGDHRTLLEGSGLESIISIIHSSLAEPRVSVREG
# [6] = HEp-2 cell cytotoxicity, dose response, cytotoxicity control for RSV inhibitor project, HTS (AID 2410); format: functional; details: human respiratory syncytial virus
# Caspase-3 = target: T3, Caspase-3 (Homo sapiens, UniProt P42574); format: functional;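 note: Dose-response selectivity test against caspase-3 for candidate inhibitors of sentrin-specific proteases (SENPs)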
# T3 sequence (P42574 whole entry): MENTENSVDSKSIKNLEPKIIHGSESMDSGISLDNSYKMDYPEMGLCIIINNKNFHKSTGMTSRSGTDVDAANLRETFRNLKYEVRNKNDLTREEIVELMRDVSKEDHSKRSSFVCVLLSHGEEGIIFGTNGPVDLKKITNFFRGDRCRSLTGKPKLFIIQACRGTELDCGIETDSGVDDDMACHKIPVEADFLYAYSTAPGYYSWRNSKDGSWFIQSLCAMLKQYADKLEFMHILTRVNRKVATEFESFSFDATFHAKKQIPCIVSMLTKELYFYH
# [7] = target: T4, Sentrin-specific protease 7 (Homo sapiens, UniProt Q9BQF6); format: functional;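 note: Luminescence-based dose-response confirmation of ultra-high-throughput screening hits, measuring inhibition of SENP7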
# T4 sequence (Q9BQF6 whole entry): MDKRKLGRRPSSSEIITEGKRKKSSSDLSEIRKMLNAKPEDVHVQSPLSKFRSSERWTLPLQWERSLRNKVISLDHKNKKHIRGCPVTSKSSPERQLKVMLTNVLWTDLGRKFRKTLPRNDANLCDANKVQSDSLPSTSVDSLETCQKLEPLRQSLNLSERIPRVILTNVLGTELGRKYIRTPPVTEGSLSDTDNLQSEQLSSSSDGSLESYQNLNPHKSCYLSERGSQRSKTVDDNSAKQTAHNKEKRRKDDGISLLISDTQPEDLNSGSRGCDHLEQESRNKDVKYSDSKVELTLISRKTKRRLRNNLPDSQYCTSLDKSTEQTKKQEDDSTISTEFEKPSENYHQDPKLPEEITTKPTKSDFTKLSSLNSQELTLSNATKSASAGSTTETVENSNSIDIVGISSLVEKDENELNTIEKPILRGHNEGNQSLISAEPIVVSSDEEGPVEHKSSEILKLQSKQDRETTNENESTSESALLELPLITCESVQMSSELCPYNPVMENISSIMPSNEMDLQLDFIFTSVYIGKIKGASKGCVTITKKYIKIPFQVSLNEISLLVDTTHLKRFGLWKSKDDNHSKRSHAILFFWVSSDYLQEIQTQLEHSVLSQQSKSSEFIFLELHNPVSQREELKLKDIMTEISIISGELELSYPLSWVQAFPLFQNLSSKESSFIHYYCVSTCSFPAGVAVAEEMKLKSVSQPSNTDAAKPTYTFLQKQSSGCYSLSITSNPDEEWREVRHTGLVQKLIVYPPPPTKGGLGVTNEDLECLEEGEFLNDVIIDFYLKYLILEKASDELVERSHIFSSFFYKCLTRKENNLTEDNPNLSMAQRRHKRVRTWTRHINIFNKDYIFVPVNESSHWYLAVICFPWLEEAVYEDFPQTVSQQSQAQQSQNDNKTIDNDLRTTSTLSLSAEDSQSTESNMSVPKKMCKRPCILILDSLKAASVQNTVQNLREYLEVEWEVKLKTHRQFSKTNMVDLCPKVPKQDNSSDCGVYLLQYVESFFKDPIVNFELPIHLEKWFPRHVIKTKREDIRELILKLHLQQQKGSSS
# [8] = target: RNA-editing ligase 1, mitochondrial (Trypanosoma brucei brucei, UniProt P86926); assay: TbREL1 ligase inhibitors, dose response, biochemical, fluorescence, Trypanosoma brucei (AID 1117295); format: functional
# Chain of RNA-editing ligase 1, mitochondrial (P86926 whole entry): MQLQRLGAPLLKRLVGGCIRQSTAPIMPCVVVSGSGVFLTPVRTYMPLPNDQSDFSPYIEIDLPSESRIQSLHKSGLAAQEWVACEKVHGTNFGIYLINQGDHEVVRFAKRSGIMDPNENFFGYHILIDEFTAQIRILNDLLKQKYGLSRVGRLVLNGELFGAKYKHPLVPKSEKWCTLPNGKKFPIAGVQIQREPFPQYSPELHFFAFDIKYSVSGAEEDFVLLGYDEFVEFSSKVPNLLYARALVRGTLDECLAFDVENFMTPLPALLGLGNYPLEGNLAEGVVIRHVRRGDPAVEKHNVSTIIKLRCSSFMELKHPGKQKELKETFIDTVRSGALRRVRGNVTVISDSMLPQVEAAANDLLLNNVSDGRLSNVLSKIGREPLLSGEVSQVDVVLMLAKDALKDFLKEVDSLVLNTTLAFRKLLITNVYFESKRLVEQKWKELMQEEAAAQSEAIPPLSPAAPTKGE
smiles,measurement,setting,value
CCCCCCCCCCCCCCCCn1cc[n+](C)c1,EC50,[1],> 300 µM (inconclusive)
same,AC50,[2],23.5 µM (active)
same,EC50,cells,440 nM (active)
O=C(Nc1ccccc1Cl)/C(Cl)=C(\Cl)[S+]([O-])c1ccccc1 (stereo not drawn),IC50,CHO,1.18 µM (active)
same,AC50,INS1,2.07 µM (active)
same,AC50,[3],10.8 µM (active)
same,CC50,[4],28.9 µM (active)
same,IC50,[5],22.8 µM (active)
same,IC50,Fatty acid synthase,3.28 µM (active)
Cc1cc(C)nc(/N=c2/ssnc2Cl)c1,CC50,[6],17.4 µM (active)
O=C(NC1(O)C(=O)c2ccccc2C1=O)c1ccccc1,IC50,Caspase-3,69.9 µM (active)
same,IC50,[7],2.99 µM (active)
same,IC50,[8],13.7 µM (inactive)
